Measurements from the supplement of paper PMC11061612.

Experiments:
[1] = system: COLO-792 (Melanoma); assay: Bliss excess, mean over the matrix (fraction); higher = more synergy
Summary of the method: (§1)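 Cell lines grown in DMEM/F12 or RPMI with 10% FBS were plated in 1536-well plates and held 24 hours at 37°C, 5% CO2 before 72 hours of exposure to two-drug dose matrices, with DMSO typically at 0.2%. CellTiter-Glo 2.0 luminescence gave viability, which was converted to inhibition. Vehicle wells were set to 0 and blank wells to 1. Combination Emax is the second-highest inhibition in the matrix, and Bliss excess is the observed combination effect minus the expected EA + EB − EA·EB, where EA and EB are the single-agent effects.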

[2] = system: NCI-H716 (Colorectal Carcinoma); assay: as above
Summary of the method: as §1

[3] = system: JIMT-1 (Breast Carcinoma); assay: as above
Summary of the method: as §1

[4] = system: KYSE-140 (Esophageal Squamous Cell Carcinoma); assay: as above
Summary of the method: as §1

[5] = system: A101D (Melanoma); assay: as above
Summary of the method: as §1

[6] = system: GA-10 (Burkitt's Lymphoma); assay: as above
Summary of the method: as §1

[7] = system: CA46 (Burkitt's Lymphoma); assay: as above
Summary of the method: as §1

[8] = system: TE-10 (Esophageal Squamous Cell Carcinoma); assay: as above
Summary of the method: as §1

[9] = system: DU-4475 (Breast Carcinoma); assay: as above
Summary of the method: as §1

[10] = system: DMS-53 (Small Cell Lung Carcinoma); assay: as above
Summary of the method: as §1

[11] = system: JVM-2 (B-Cell Non-Hodgkin's Lymphoma); assay: as above
Summary of the method: as §1

[12] = system: MKN1 (Gastric Carcinoma); assay: combination Emax (second highest fraction inhibited in the dose matrix, 72 h); higher = more inhibition; extreme values may be limits of the assay
Summary of the method: as §1

[13] = system: NCI-H841 (Small Cell Lung Carcinoma); assay: as above
Summary of the method: as §1

[14] = system: MKN1 (Gastric Carcinoma); assay: Bliss excess, mean over the matrix (fraction); higher = more synergy
Summary of the method: as §1

[15] = system: NCI-H841 (Small Cell Lung Carcinoma); assay: as above
Summary of the method: as §1

[16] = system: KP-N-YN (Neuroblastoma); assay: combination Emax (second highest fraction inhibited in the dose matrix, 72 h); higher = more inhibition; extreme values may be limits of the assay
Summary of the method: as §1
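Wherever Bliss excess, mean over the matrix is given: after 72 h of two-drug dosing.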

SMILES | Bliss excess [1] | Bliss excess [2] | Bliss excess [3] | Bliss excess [4] | Bliss excess [5] | Bliss excess [6] | Bliss excess [7] | Bliss excess [8] | Bliss excess [9] | Bliss excess [10] | Bliss excess [11] | combination Emax [12] | combination Emax [13] | Bliss excess [14] | Bliss excess [15] | combination Emax [16]
CN(CCO)CC[C@H](CSc1ccccc1)Nc1ccc(S(=O)(=O)NC(=O)c2ccc(N3CCC([C@@H](O)c4ccccc4-c4ccc(Cl)cc4)CC3)cc2)cc1S(=O)(=O)C(F)(F)F [AZD4320] + C1CN(CCC1(C(=O)N[C@@H](CCO)C2=CC=C(C=C2)Cl)N)C3=NC=NC4=C3C=CN4 [Capivasertib] (first compound max 1 µM, 7x7, partner max 3 µM) | 0.0021 | -0.0262 | -0.0424 | -0.0432 | -0.0695 | -0.0283 | -0.0496 | -0.0212 | 0.069 | -0.0195 | -0.0068 |  |  |  |  | 
CN(CCO)CC[C@H](CSc1ccccc1)Nc1ccc(S(=O)(=O)NC(=O)c2ccc(N3CCC([C@@H](O)c4ccccc4-c4ccc(Cl)cc4)CC3)cc2)cc1S(=O)(=O)C(F)(F)F [AZD4320] + C=CCn1c(=O)c2cnc(Nc3ccc(N4CCN(C)CC4)cc3)nc2n1-c1cccc(C(C)(C)O)n1 [AZD1775] (first compound max 1 µM, partner max 1 µM) | 0.0939 | 0.0021 | 0.0363 | -0.0161 | 0.14 | -0.0167 | 0.0175 | -0.0084 | 0.0013 | 0.0817 | 0.0965 |  |  |  |  | 
CN(CCO)CC[C@H](CSc1ccccc1)Nc1ccc(S(=O)(=O)NC(=O)c2ccc(N3CCC([C@@H](O)c4ccccc4-c4ccc(Cl)cc4)CC3)cc2)cc1S(=O)(=O)C(F)(F)F [AZD4320] + CC(=O)O[C@H]1C(=O)[C@@]2(C)[C@H]([C@H](OC(=O)c3ccccc3)[C@]3(O)C[C@H](OC(=O)[C@H](O)[C@@H](NC(=O)c4ccccc4)c4ccccc4)C(C)=C1C3(C)C)[C@]1(OC(C)=O)CO[C@@H]1C[C@@H]2O [Paclitaxel] (first compound max 1 µM, 7x7, partner max 3 µM) |  |  |  |  |  |  |  |  |  |  |  | 0.91 | 0.968 | 0.0566 | 0.0423 | 
CN(CCO)CC[C@H](CSc1ccccc1)Nc1ccc(S(=O)(=O)NC(=O)c2ccc(N3CCC([C@@H](O)c4ccccc4-c4ccc(Cl)cc4)CC3)cc2)cc1S(=O)(=O)C(F)(F)F [AZD4320] + CCN(CCO)CCCOc1ccc2c(Nc3cc(CC(=O)Nc4cccc(F)c4)[nH]n3)ncnc2c1 [AZD2811] (first compound max 1 µM, 7x7, partner max 1 µM) | 0.0627 | -0.0242 | 0.0004 | 0.0082 | 0.0418 | -0.0203 | -0.0191 | 0.038 | 0.0738 | -0.0067 | 0.0677 |  |  |  |  | 
CN(CCO)CC[C@H](CSc1ccccc1)Nc1ccc(S(=O)(=O)NC(=O)c2ccc(N3CCC([C@@H](O)c4ccccc4-c4ccc(Cl)cc4)CC3)cc2)cc1S(=O)(=O)C(F)(F)F [AZD4320] + Cn1cnc2c(F)c(Nc3ccc(Br)cc3Cl)c(C(=O)NOCCO)cc21 [Selumetinib] (first compound max 1 µM, 7x7, partner max 3 µM) | 0.0279 |  | 0.0367 | 0.0178 | -0.0099 | -0.0143 | -0.0435 | -0.0187 | 0.0444 | 0.0964 | 0.025 |  |  |  |  | 
CN(CCO)CC[C@H](CSc1ccccc1)Nc1ccc(S(=O)(=O)NC(=O)c2ccc(N3CCC([C@@H](O)c4ccccc4-c4ccc(Cl)cc4)CC3)cc2)cc1S(=O)(=O)C(F)(F)F [AZD4320] + Nc1ccn([C@@H]2O[C@H](CO)[C@@H](O)C2(F)F)c(=O)n1 [Gemcitabine] (first compound max 1 µM, 7x7, partner max 0.3 µM) |  |  |  |  |  |  |  |  |  |  |  | 0.759 | 0.322 | 0.0005 | -0.0317 | 
COc1nnc2ccc(N3CCC(c4ccc(OCCN5CCN(C)C(=O)[C@H]5C)cc4)CC3)nn12 [AZD5153] + CN(CC[C@H](CSC1=CC=CC=C1)NC2=C(C=C(C=C2)S(=O)(=O)NC(=O)C3=CC=C(C=C3)N4CCC(CC4)[C@H](C5=CC=CC=C5C6=CC=C(C=C6)Cl)O)S(=O)(=O)C(F)(F)F)CCO [AZD4320] (first compound max 1 µM, 7x7, partner max 1 µM) | 0.0427 | -0.0394 | 0.0486 | 0.0588 | 0.0648 | -0.0394 | -0.0053 |  | 0.0779 | -0.0168 | 0.0973 |  |  |  |  | 
Cc1cc2ncnn2cc1Nc1ncc2c(n1)n(C1CCOCC1)c(=O)n2C [AZD7648] + COc1cc([C@@H]2c3cc4c(cc3[C@@H](O[C@@H]3O[C@@H]5CO[C@@H](C)O[C@H]5[C@H](O)[C@H]3O)[C@H]3COC(=O)[C@H]23)OCO4)cc(OC)c1O [Etoposide] (first compound max 10 µM, 7x7, partner max 10 µM) |  |  |  |  |  |  |  |  |  |  |  | 0.922 | 0.441 | 0.0865 | 0.0261 | 0.677
Cc1nc(Nc2ncc(C(=O)Nc3c(C)cccc3Cl)s2)cc(N2CCN(CCO)CC2)n1 [Dasatinib] + CC(=O)Nc1cccc(-n2c(=O)n(C3CC3)c(=O)c3c(Nc4ccc(I)cc4F)n(C)c(=O)c(C)c32)c1 [Trametinib] (first compound max 2 µM, 7x7, partner max 1 µM) | -0.0726 | -0.0355 | 0.0276 | -0.132 | 0.0947 | 0.0228 | -0.0608 |  | 0.011 | -0.0423 | -0.0158 | 0.656 | 0.199 | -0.0121 | -0.0356 | 0.361
COc1cc2ncnc(Nc3ccc(F)c(Cl)c3)c2cc1OCCCN1CCOCC1 [Gefitinib] + CC(C)n1c(=O)n(C)c2cnc3cc(F)c(-c4ccc(OCCCN5CCCCC5)nc4)cc3c21 [AZD1390] (first compound max 10 µM, 7x7, partner max 0.3 µM) | -0.0612 | -0.0353 | -0.0248 | -0.0919 | -0.083 | -0.032 | -0.0529 |  | -0.0427 | -0.0243 | -0.0645 | 0.339 | 0.176 | -0.0669 | -0.0837 | 0.318
CC(=O)c1c(C)c2cnc(Nc3ccc(N4CCNCC4)cn3)nc2n(C2CCCC2)c1=O [Palbociclib] + CN(CC[C@H](CSC1=CC=CC=C1)NC2=C(C=C(C=C2)S(=O)(=O)NC(=O)C3=CC=C(C=C3)N4CCC(CC4)[C@H](C5=CC=CC=C5C6=CC=C(C=C6)Cl)O)S(=O)(=O)C(F)(F)F)CCO [AZD4320] (first compound max 10 µM, 7x7, partner max 1 µM) | -0.0863 | -0.0417 | -0.0507 | -0.0355 | 0.0351 | -0.0385 | -0.0474 |  | 0.0318 | 0.038 | -0.0143 |  |  |  |  | 
N#Cc1cnc(Nc2cc(NC[C@H]3CNCCO3)c(C(F)(F)F)cn2)cn1 [SRA737] + C=CCn1c(=O)c2cnc(Nc3ccc(N4CCN(C)CC4)cc3)nc2n1-c1cccc(C(C)(C)O)n1 [AZD1775] (first compound max 10 µM, partner max 1 µM) |  |  |  |  |  |  |  |  |  |  |  | 0.916 | 0.514 | 0.0971 | 0.0292 | 
N#Cc1cnc(Nc2cc(NC[C@H]3CNCCO3)c(C(F)(F)F)cn2)cn1 [SRA737] + CCc1c2c(nc3ccc(O)cc13)-c1cc3c(c(=O)n1C2)COC(=O)[C@]3(O)CC [SN-38] (first compound max 10 µM, 7x7, partner max 0.3 µM) |  |  |  |  |  |  |  |  |  |  |  | 0.866 | 0.62 | 0.0303 | 0.044 | 
N#Cc1cnc(Nc2cc(NC[C@H]3CNCCO3)c(C(F)(F)F)cn2)cn1 [SRA737] + Nc1ccn([C@@H]2O[C@H](CO)[C@@H](O)C2(F)F)c(=O)n1 [Gemcitabine] (first compound max 10 µM, 7x7, partner max 0.3 µM) |  |  |  |  |  |  |  |  |  |  |  | 0.867 | 0.818 | 0.0588 | 0.0776 | 
N#Cc1cnc(Nc2cc(NC[C@H]3CNCCO3)c(C(F)(F)F)cn2)cn1 [SRA737] + O=c1[nH]cc(F)c(=O)[nH]1 [5-Fluorouracil] (first compound max 10 µM, 7x7, partner max 20 µM) |  |  |  |  |  |  |  |  |  |  |  | 0.69 | 0.183 | 0.0221 | -0.0189 | 
C[C@@H](c1ccc2nccn2c1)n1nnc2ncc(-c3cnn(C)c3)nc21 [Savolitinib] + CC1(C)CCC(CN2CCN(c3ccc(C(=O)NS(=O)(=O)c4ccc(NCC5CCOCC5)c([N+](=O)[O-])c4)c(Oc4cnc5[nH]ccc5c4)c3)CC2)=C(c2ccc(Cl)cc2)C1 [Venetoclax] (first compound max 1 µM, 7x7, partner max 1 µM) | -0.0601 | -0.0423 | -0.0354 | -0.0257 | -0.0598 | -0.0485 | -0.0366 |  | -0.0533 | -0.0446 | -0.0472 | 0.0845 | 0.201 | -0.0402 | -0.0333 | 0.569
C[C@@H](c1ccc2nccn2c1)n1nnc2ncc(-c3cnn(C)c3)nc21 [Savolitinib] + CN(CC[C@H](CSC1=CC=CC=C1)NC2=C(C=C(C=C2)S(=O)(=O)NC(=O)C3=CC=C(C=C3)N4CCC(CC4)[C@H](C5=CC=CC=C5C6=CC=C(C=C6)Cl)O)S(=O)(=O)C(F)(F)F)CCO [AZD4320] (first compound max 1 µM, 7x7, partner max 1 µM) | 0.0139 | -0.0422 | -0.0427 | 0.0044 | -0.0202 | -0.0196 | -0.0488 |  | -0.0352 | -0.036 | -0.0313 |  |  |  |  | 
C[C@@H](c1ccc2nccn2c1)n1nnc2ncc(-c3cnn(C)c3)nc21 [Savolitinib] + Cc1c2c(nn1C)CSCc1cc(n(C)n1)CSc1cc(c3ccccc3c1)OCCCc1c(C(=O)O)n(C)c3c-2c(Cl)ccc13 [AZD5991] (first compound max 1 µM, 7x7, partner max 1 µM) | -0.0446 | -0.0572 | -0.0551 | -0.0301 | -0.0202 | -0.0354 | -0.03 |  | 0.007 | -0.0359 | -0.021 | 0.111 | 0.266 | -0.0366 | -0.0178 | 0.324
